Tests used:
[1] = test system: skeletal muscle mitochondria; assay: Mitochondrial membrane potential (ΔΨm, TMRM) powered by glutamate plus malate; type: biochemical, rat; settings: primary screen, ∼2.5 µM, average of duplicates; glutamate and malate
Protocol: Mitochondrial membrane potential (ΔΨm) was estimated fluorimetrically as described previously [33] on the Varian fluorimeter, except the potentiometric dye TMRM was used in quench-mode in place of safranine O [34]. […] The effect of putative small-molecule inhibitors was normalized as the % change in fluorescence between vehicle treatment and complete depolarization by the uncoupler carbonyl cyanide-4-(trifluoromethoxy)phenylhydrazone (FCCP, 2 µM) added at the end of each run. When indicated, the K^+/H^+ exchanger nigericin (80 ng ⋅ ml^−1) was added to collapse the pH gradient across the mitochondrial inner membrane (ΔpH) and maximize ΔΨm.
All assays were performed with stirring at 37°C.
Additionally, four microplate assays for ΔΨm were run in parallel to the H2O2 assays. These assays were as described under “Measurement of mitochondrial H2O2 production and membrane potential” except that each substrate condition was assayed in a separate microplate. […] Plates were incubated in the dark at room temperature for 30–40 min (H2O2) or 10–15 min (ΔΨm) after the addition of substrate, and endpoint fluorescence was measured on the Victor plate reader. […] Endpoints for the ΔΨm assays were determined in pilot experiments as the times for TMRM accumulation to reach a steady state. At room temperature, this was typically ∼ 5 min and remained stable for at least 30 min. Endpoint fluorescence values were normalized as described in the previous section with wells containing FCCP serving as positive controls for the ΔΨm assays.

[2] = test system: ubiquinone-binding site of complex I (site IQ); assay: Site-specific H2O2 production from site IQ in skeletal muscle mitochondria; type: biochemical, rat; settings: primary screen, ∼2.5 µM, average of duplicates; 5 mM succinate;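 note: H2O2 from superoxide detected by Amplex UltraRed fluorescence with added superoxide dismutase and horseradish peroxidase, endpoint read 30–40 min after substrate addition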
Protocol: Superoxide was measured as H2O2 after dismutation by endogenous or exogenous superoxide dismutase. Rates of total superoxide/H2O2 production were measured fluorimetrically using Amplex UltraRed in the presence of exogenous superoxide dismutase and horseradish peroxidase in a Varian Cary Eclipse fluorimeter as previously described [27]. Rates of production from specific sites were determined as previously described using the following eight conditions: flavin mononucleotide site of complex I (site IF) plus matrix NAD-linked dehydrogenases (collectively "site IF/DH") with 5 mM glutamate, 5 mM malate, and 4 µM rotenone [28]; ubiquinone-binding site of complex I (site IQ) with either 0.5 or 5 mM succinate [29]; flavin site of complex II (site IIF) with either 15 µM palmitoylcarnitine, 2.5 µM antimycin A, and 2 µM myxothiazol or 0.5 mM succinate, 4 µM rotenone, 2.5 µM antimycin A, and 2 µM myxothiazol [30], [31]; mGPDH with 1.7 mM glycerol phosphate, 4 µM rotenone, 2.5 µM antimycin A, 2 µM myxothiazol, 1 mM malonate, and 250 nM free calcium; outer ubiquinone-binding site of complex III (site IIIQo) with either 0.5 or 5 mM succinate, 4 µM rotenone and 2.5 µM antimycin A [32]. Candidate small-molecule inhibitors were added prior to the start of measurements and H2O2 calibration curves were performed in the presence of tested compounds.
3,200 compounds were tested initially at 2.5 µM (0.025% DMSO final) in duplicate on different plates against a panel of five distinct assays of site-specific superoxide/H2O2 production as described in the previous section with minor changes. […] Endpoint fluorescence was measured on a Perkin Elmer Victor V3 fluorescent plate reader. The fluorescence intensity of each well was normalized as % change from the average of eight DMSO controls on the same plate. Duplicate wells of each of four modulators of mitochondrial metabolism known to inhibit specific sites of superoxide/H2O2 production were included on each plate as positive controls and the resulting fluorescence levels set as −100% change from DMSO controls. Known inhibitors included 20 mM aspartate (for site IF/DH), 1 µM FCCP (for site IQ), 10 mM malonate (for site IIF), and 2 µM myxothiazol (for site IIIQo). The background fluorescence of the FCCP wells in the site IQ assay was used to normalize mGPDH plates run in parallel. To minimize position-dependent effects across each assay plate, Tukey’s two-way median polish was applied to fluorescence values after initial normalization [35], [36]. Tukey’s polish is an iterative subtraction of the median row and column values from each well’s given row or column. The procedure is repeated until sequential medians for each row and column are zero and positional gradients in fluorescence are eliminated.
These 20 compounds were tested in duplicate at 0.08–80 µM (0.1% DMSO final) in microplate format for effects on site-specific H2O2 production as described above. […] Plates were incubated in the dark at room temperature for 30–40 min (H2O2) or 10–15 min (ΔΨm) after the addition of substrate, and endpoint fluorescence was measured on the Victor plate reader. Endpoints were chosen for the H2O2 assays to provide good signal-to-noise ratios and linear rates of change without the indicator dye limiting the reaction.

[3] = test system: flavin mononucleotide site of complex I (site IF) plus matrix NAD-linked dehydrogenases (site IF/DH); assay: Site-specific H2O2 production from site IF/DH in skeletal muscle mitochondria; type: biochemical, rat; settings: primary screen, ∼2.5 µM, average of duplicates
Protocol: (§1) Superoxide was measured as H2O2 after dismutation by endogenous or exogenous superoxide dismutase. Rates of total superoxide/H2O2 production were measured fluorimetrically using Amplex UltraRed in the presence of exogenous superoxide dismutase and horseradish peroxidase in a Varian Cary Eclipse fluorimeter as previously described. Rates of production from specific sites were determined as previously described using the following eight conditions: flavin mononucleotide site of complex I (site IF) plus matrix NAD-linked dehydrogenases (collectively "site IF/DH") with 5 mM glutamate, 5 mM malate, and 4 µM rotenone; ubiquinone-binding site of complex I (site IQ) with either 0.5 or 5 mM succinate; flavin site of complex II (site IIF) with either 15 µM palmitoylcarnitine, 2.5 µM antimycin A, and 2 µM myxothiazol or 0.5 mM succinate, 4 µM rotenone, 2.5 µM antimycin A, and 2 µM myxothiazol, [31]; mGPDH with 1.7 mM glycerol phosphate, 4 µM rotenone, 2.5 µM antimycin A, 2 µM myxothiazol, 1 mM malonate, and 250 nM free calcium; outer ubiquinone-binding site of complex III (site IIIQo) with either 0.5 or 5 mM succinate, 4 µM rotenone and 2.5 µM antimycin A [32]. Candidate small-molecule inhibitors were added prior to the start of measurements and H2O2 calibration curves were performed in the presence of tested compounds.
(§2) 3,200 compounds were tested initially at 2.5 µM (0.025% DMSO final) in duplicate on different plates against a panel of five distinct assays of site-specific superoxide/H2O2 production as described in the previous section with minor changes. […] Endpoint fluorescence was measured on a Perkin Elmer Victor V3 fluorescent plate reader. The fluorescence intensity of each well was normalized as % change from the average of eight DMSO controls on the same plate. Duplicate wells of each of four modulators of mitochondrial metabolism known to inhibit specific sites of superoxide/H2O2 production were included on each plate as positive controls and the resulting fluorescence levels set as −100% change from DMSO controls. Known inhibitors included 20 mM aspartate (for site IF/DH), 1 µM FCCP (for site IQ), 10 mM malonate (for site IIF), and 2 µM myxothiazol (for site IIIQo). The background fluorescence of the FCCP wells in the site IQ assay was used to normalize mGPDH plates run in parallel. To minimize position-dependent effects across each assay plate, Tukey’s two-way median polish was applied to fluorescence values after initial normalization, [36]. Tukey’s polish is an iterative subtraction of the median row and column values from each well’s given row or column. The procedure is repeated until sequential medians for each row and column are zero and positional gradients in fluorescence are eliminated.

[4] = target: T1, flavin site of complex II (site IIF) (Rattus norvegicus, UniProt Q920L2); assay: Site-specific H2O2 production from site IIF in skeletal muscle mitochondria; type: biochemical; settings: primary screen, ∼2.5 µM, average of duplicates; palmitoylcarnitine
T1 construct: from tissue; host or cells: skeletal muscle mitochondria
Protocol: as §1, §2

mGPDH = target: T2, mGPDH (Rattus norvegicus, UniProt P35571); assay: Superoxide/H2O2 production by mGPDH in isolated skeletal muscle mitochondria (Amplex UltraRed); type: biochemical; settings: for mGPDH (% change from DMSO): primary screen, ∼2.5 µM, average of duplicates, 16.7 mM glycerol phosphate, no added calcium
T2 construct: Activity of mGPDH in frozen-thawed skeletal muscle mitochondria was measured; from tissue; host or cells: skeletal muscle mitochondria
T2 sequence (P35571 43-727): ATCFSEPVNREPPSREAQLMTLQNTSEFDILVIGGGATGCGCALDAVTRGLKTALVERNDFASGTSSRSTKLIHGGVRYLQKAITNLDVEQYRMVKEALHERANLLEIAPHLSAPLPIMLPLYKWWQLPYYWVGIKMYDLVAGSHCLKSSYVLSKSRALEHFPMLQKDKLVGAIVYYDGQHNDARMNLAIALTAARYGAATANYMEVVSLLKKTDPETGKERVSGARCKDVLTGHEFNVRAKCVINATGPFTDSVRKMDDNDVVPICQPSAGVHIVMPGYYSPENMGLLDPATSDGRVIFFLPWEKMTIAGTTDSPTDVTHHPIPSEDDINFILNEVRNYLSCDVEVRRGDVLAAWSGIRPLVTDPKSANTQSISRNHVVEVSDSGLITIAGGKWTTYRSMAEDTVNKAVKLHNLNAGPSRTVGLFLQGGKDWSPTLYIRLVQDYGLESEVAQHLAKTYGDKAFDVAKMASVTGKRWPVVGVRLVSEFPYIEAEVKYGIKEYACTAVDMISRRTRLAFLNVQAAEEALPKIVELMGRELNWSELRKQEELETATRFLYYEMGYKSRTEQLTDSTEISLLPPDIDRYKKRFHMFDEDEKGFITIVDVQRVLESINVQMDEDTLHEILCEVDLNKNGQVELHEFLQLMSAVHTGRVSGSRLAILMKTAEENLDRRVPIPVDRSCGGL

[5] = target: T3, outer ubiquinone-binding site of complex III (site IIIQo) (Rattus norvegicus, UniProt P00159+P20788); assay: Site-specific H2O2 production from site IIIQo in skeletal muscle mitochondria; type: biochemical; settings: primary screen, ∼2.5 µM, average of duplicates; 5 mM succinate
T3 construct: from tissue; host or cells: skeletal muscle mitochondria
Protocol: as §1, §2

T1 sequence (Q920L2 35-656): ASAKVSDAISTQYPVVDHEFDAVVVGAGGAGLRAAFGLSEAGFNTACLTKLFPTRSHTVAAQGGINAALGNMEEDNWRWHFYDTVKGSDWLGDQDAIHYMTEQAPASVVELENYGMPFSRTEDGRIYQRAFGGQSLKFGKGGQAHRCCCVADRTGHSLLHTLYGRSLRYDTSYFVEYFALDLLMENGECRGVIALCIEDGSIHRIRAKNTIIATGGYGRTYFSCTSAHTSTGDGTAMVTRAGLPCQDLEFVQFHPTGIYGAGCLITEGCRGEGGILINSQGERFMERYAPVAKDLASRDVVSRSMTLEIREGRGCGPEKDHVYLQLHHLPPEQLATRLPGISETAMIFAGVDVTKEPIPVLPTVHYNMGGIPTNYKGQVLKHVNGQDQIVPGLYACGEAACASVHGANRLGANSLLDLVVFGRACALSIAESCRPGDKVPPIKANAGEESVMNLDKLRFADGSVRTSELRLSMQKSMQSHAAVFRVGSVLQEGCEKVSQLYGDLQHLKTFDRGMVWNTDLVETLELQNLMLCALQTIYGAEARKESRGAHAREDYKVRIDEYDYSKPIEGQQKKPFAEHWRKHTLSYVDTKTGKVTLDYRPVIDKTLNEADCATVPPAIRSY
T1 sequence (P21913 31-282 partner): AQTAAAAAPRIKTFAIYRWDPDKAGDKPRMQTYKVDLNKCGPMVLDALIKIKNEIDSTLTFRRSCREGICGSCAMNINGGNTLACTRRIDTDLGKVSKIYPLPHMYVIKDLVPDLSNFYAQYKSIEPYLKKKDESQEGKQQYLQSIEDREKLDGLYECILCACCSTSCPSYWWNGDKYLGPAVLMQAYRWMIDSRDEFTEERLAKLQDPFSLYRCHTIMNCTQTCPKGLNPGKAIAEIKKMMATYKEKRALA
T1 sequence (Q641Z9 30-169 partner limits assumed): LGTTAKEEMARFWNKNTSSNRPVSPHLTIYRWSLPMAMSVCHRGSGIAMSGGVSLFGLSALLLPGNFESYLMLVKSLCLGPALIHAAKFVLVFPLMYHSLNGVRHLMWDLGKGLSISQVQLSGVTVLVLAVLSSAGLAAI
T1 sequence (Q6PCT8 57-159 partner): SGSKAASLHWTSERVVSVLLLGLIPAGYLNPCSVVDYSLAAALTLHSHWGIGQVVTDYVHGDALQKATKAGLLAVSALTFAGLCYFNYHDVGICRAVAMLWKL

Row | Compound | ΔΨm (% change from DMSO) [1] [%] | IQ (% change from DMSO) [2] [%] | IF/DH (% change from DMSO) [3] [%] | IIF (% change from DMSO) [4] [%] | mGPDH (% change from DMSO) (mGPDH) [%] | IIIQo (% change from DMSO) [5] [%] | effect on the rate of H2O2 production from mGPDH (mGPDH; compared with glyceraldehyde 3-phosphate, Fig. 2A)
1 | CC(=O)c1c(C)n(-c2ccccc2)c2ccc(O)cc12 [compound 5215317] | 0.144 | -13.7 | -34.7 | -26.9 | -14.1 | -6.4 | 
2 | COc1ccc(C(=O)Nc2ccc(S(=O)(=O)Nc3nc(C)cc(C)n3)cc2)c(OC)c1 [compound 5219504] | 1.4 | -19.3 | -30.7 | -44.3 | -29.8 | -8.8 | 
3 | NC(=O)Cc1c[nH]c2cccc(O)c12 [compound 5106694] | 0.127 | -49.2 | -39.7 | -58.5 | -32.1 | -48.1 | 
4 | Cc1nc2ccc(Cl)cc2c2c(N)c3ccccc3n12 [compound 5219795] | 0.6 | -14.8 | -30.5 | -49.0 | -23.3 | -23.3 | 
5 | O=S(=O)(Nc1ccc(O)c(Br)c1)c1ccc(Cl)cc1 [compound 5158529] | -0.4 | -50.5 | -54.3 | -47.6 | -23.5 | -42.6 | 
6 | CC1=Nc2c([nH]c3ccccc23)-c2cc(C)ccc2N1.Cl [compound 5219818] | -0.5 | -50.1 | -40.2 | -51.0 | -31.6 | -36.6 | 
7 | CCCCc1c(C(=O)O)cc(C)cc1C(=O)O [compound 5119061] | 0.737 | -6.2 | -13.1 | -5.7 | -10.0 | -6.2 | 
8 | COc1ccc(NCc2ccccc2)cc1 [compound 5107549] | 0.3 | -27.5 | -41.3 | -44.6 | -28.0 | -6.9 | 
9 | Nc1ccccc1S(=O)(=O)Nc1cccc2cccnc12 [compound 5175136] | 0.113 | -18.9 | -42.5 | -14.5 | -16.1 | 9.1 | 
10 | O=C(CO)COP(=O)(O)O [DHAP, dihydroxyacetone phosphate, reference compound] |  |  |  |  |  |  | less effective
11 | COc1cc(CN2CCOCC2)ccc1O [compound 5423875] | 0.5 | -20.0 | -12.7 |  | -11.3 | -15.0 | 
12 | O=C1c2ccccc2C(=O)N1CCc1c[nH]c2ccc(O)cc12 [compound 5106791] | 0.466 | -44.7 | -33.6 | -42.5 | -16.2 | -35.4 | 
13 | Nc1cc(S(=O)(=O)c2ccc(O)c(N)c2)ccc1O [compound 5105145] | -1.2 | -49.7 | -62.0 | -62.7 | -37.3 | -48.5 | 
14 | CCC1CCCCN1C/C=C/c1ccc(N(C)C)cc1 (stereo not shown) [compound 5429735] | 0.3 | -0.0537 | -23.1 | -4.3 | -10.7 | -11.7 | 
15 | CCN1CCN(C/C=C/c2ccc(N(C)C)cc2)CC1 [compound 5424907] | 0.00666 | -2.9 | -6.5 |  | -13.4 | -5.7 | 
16 | O=[N+]([O-])c1ccc2[nH]c(-c3ccccc3)cc2c1 [compound 5107950] | -14.4 | -70.5 | -58.4 | -18.1 | -19.8 | 46.2 | 
17 | c1coc(CNc2ccc3c(c2)OCO3)c1 [compound 5457094] | 0.527 | -27.2 | -27.2 | -27.6 | -20.2 | -17.4 | 
18 | COc1ccc(O)c(CN2CCC(N3CCCCC3)CC2)c1 [compound 5410291] | -0.0836 | -18.2 | -15.5 |  | -18.0 | -19.0 | 

Source: publication PMC3933693, “Novel Inhibitors of Mitochondrial sn-Glycerol 3-phosphate Dehydrogenase” (PLoS ONE, 2014)
